Measurements from PMC9081605, “A High-Throughput Toxicity Screen of 42 Per- and Polyfluoroalkyl Substances (PFAS) and Functional Assessment of Migration and Gene Expression in Human Placental Trophoblast Cells” (Frontiers in Toxicology, 2022).

How the values were obtained:
Assay type in all cases: cell-based, human
JEG-3 cells [1] = assay: Proliferation, change in confluence 0-24 h (IncuCyte Zoom, HTTS); details: for Prolif ↓, lowest concentration at which the mean response value exceeded the mean control value ± 2*SD (rough binning): 24 h, decrease; for cellular proliferation relative to vehicle control (rough binning): after 24 h, in at least one concentration; for minimal effective concentration: read-out: Prolif ↓, lowest concentration at which the mean response value exceeded the mean control value ± 2*SD (rough binning)
Excerpt: (§1) JEG-3 human choriocarcinoma trophoblastic cells (American Type Culture Collection, VA, United States) were maintained in sterile-filtered Minimum Essential Media (MEM) supplemented with L-glutamine and phenol red (Thermo Fisher Scientific, MA, United States), 10% (v/v) heat-inactivated BenchMark Fetal Bovine Serum (Gemini Bio, CA, United States), 1% (v/v) sodium pyruvate (Thermo Fisher Scientific, MA, United States), and 1% (v/v) penicillin streptomycin (Sigma Aldrich, MO, United States). Cells were maintained in an incubator at 37°C with 5% CO2. JEG-3 cells were cultured in 10 cm tissue culture plates and cell passage numbers were recorded.
(§2) A total of 42 perfluoroalkyl substances (PFAS) were evaluated (Supplementary Table S1 contains source and purity). PFAS stock solutions were maintained in 100% methanol as previous work has shown certain PFAS degrade when stored in dimethyl sulfoxide (DMSO; [Gaballah et al., 2020]). […] The vehicle control group consisted of 97.5% media + 2.5% methanol to match the concentration of methanol in the media at the highest PFAS concentration tested (500 µM). Menadione (50–500 µM) was used as a positive control for cytotoxicity assessment. PFAS were de-identified and assigned random numbers to eliminate bias. Chemical exposure plate maps were designed so that all experimental conditions were tested in at least technical duplicates per plate. The outer edges of each plate received media alone and were excluded from all analyses to avoid edge effects. Each plate map included 14 technical replicates of the vehicle control group and 14 technical replicates of media only. Biological replicates were defined as separate 384 well plates tested on separate days using different cell passages. The experimental workflow is depicted in Supplementary Figure S1.
(§3) JEG-3 cells were counted using a Z2 Coulter Particle Counter (Beckman Coulter, CA, United States) and seeded at a density of 2,500 cells per well in black-walled, clear bottom 384 well plates (Corning, #3764) and allowed to adhere overnight. Approximately 24 h later, 384 well plates were imaged using an IncuCyte Zoom live cell imager (Essen BioScience Inc., MI, United States) to obtain baseline cellular confluence measurements prior to chemical dosing (0 h). Media was removed from wells and replaced with fresh media containing chemical treatments (exposure media) using a Viaflo liquid handling device (Integra Biosciences, NH, United States). Within 30 min of exposure media application, plates were again imaged for cellular confluence using the IncuCyte Zoom. Plates were incubated with exposure media for 24 h and then imaged again using the IncuCyte Zoom (24 h).
Plate well bottom images were evaluated using automated cell masking. The automated cell masking program was developed using IncuCyte Zoom base software. Cell masking parameters were defined using a training set of JEG-3 cell images obtained prior to conducting the experiments and following IncuCyte Zoom software recommendations. Briefly, the training images were obtained from cell culture plates with varying levels of JEG-3 cellular confluence (ranging from ∼15% confluent to ∼95% confluent). Parameters for the automated cell masking were first manually set by an experimenter for 3-6 images of low (∼15–30%), medium (∼30–70%), and high confluence (∼70% or greater). The training images were then evaluated by the automated masking program and manually checked to ensure the parameters were sufficiently strict to ignore background (e.g., blank space on the plate well bottom) but adequately sensitive to detect cell borders. The masking program was then implemented on the experimental plates to obtain a baseline cellular confluence measurement at 0 h and a second confluence measurement at 24 h. […]

JEG-3 cells [2] = assay: CellTiter-Glo luminescent cell viability assay (HTTS); details: for Viability ↑, lowest concentration at which the mean response value exceeded the mean control value ± 2*SD (rough binning): increase; for cell viability relative to vehicle control (rough binning): after 24 h, in at least one concentration; for EC50: four-parameter fit, estimates meeting inclusion criteria
Excerpt: as §1, §2, §3
In the same plate evaluated for mitochondrial membrane potential, cell viability measures were duplexed using the CellTiter-Glo (CTG) Luminescent Cell Viability Assay (Promega, WI, United States). CTG reagent was added to each well at a volume of 20 µl. The plate was left at room temperature to incubate for 5 min and then 20 µl from each well was transferred to a low-volume, round-bottom, white 384 well plate (Corning, NY, United States). The CTG reagent lyses cellular and mitochondrial membranes and binds to adenosine triphosphate (ATP) released by cells, which produces a luminescence signal. The intensity of the luminescence was considered a proxy measure for the number of live cells in a well. The luminescence intensities were measured using the CLARIOstar plate reader.
HTTS data were analyzed using a custom data analysis script in R v 1.2.5019 ([R Core Team, 2019]). Briefly, raw data points corresponding to the confluence measurements at 0 and 24 h, the fluorescence intensities corresponding to MMP, and the relative luminescence units (RLU) corresponding to cell viability were imported directly from Microsoft Excel into the R programming environment, RStudio. Separate plates run on separate days using different JEG-3 passages were considered as biologic replicates. […]

JEG-3 cells [3] = assay: Mitochondrial membrane potential, JC-10 assay (HTTS)
Excerpt: as §1, §2, §3
The JC-10 assay (Enzo Life Sciences, NY, United States) was used to evaluate mitochondrial membrane potential, the main bioenergetic parameter that regulates respiratory rate, ATP synthesis and reactive oxygen species generation. In cells with polarized mitochondrial membranes, the JC-10 dye localizes to the mitochondrial matrix and forms red fluorescent aggregates (540/590 nm). In cells with depolarized mitochondrial membranes, the JC-10 dye localizes in the cytoplasm and converts to a green fluorescent monomer (490/525 nm). Mitochondrial membrane potential was calculated as the ratio of the green and red fluorescence intensities within a well.
At the end of the 24 h exposure period, exposure media was removed from the plate. The plate wells were then washed with 1x phosphate buffered saline (1x PBS). After washing, the JC-10 reagent was suspended in fresh 1x PBS and 20 µl was added to each well at a final concentration of 20 μM (Enzo Life Sciences, NY, United States). The plate was incubated for 1 h at 37°C, and the fluorescence intensities at excitation/emission wavelengths of 490/525 nm and 540/590 nm were measured using a CLARIOstar (BMG Labtech, Offenburg, Germany) plate reader, respectively.
HTTS data were analyzed using a custom data analysis script in R v 1.2.5019 ([R Core Team, 2019]). […]

[4] = JEG-3 cells, 24 h exposure, four-parameter fit, estimates meeting inclusion criteria, read-out: Proliferation EC50 ± SD
[5] = JEG-3 cells, 24 h exposure, four-parameter fit, estimates meeting inclusion criteria, read-out: MMP EC50 ± SD
[6] = JEG-3 cells, 24 h exposure, read-out: Viability EC50 ± SD

Compound	Prolif ↓, lowest concentration at which the mean response value exceeded the mean control value ± 2*SD (rough binning) (JEG-3 cells [1]; JEG-3 cells) [µM]	EC50 (JEG-3 cells [1]; [4]) [µM]	cellular proliferation relative to vehicle control (rough binning) (JEG-3 cells [1])	Viability ↑, lowest concentration at which the mean response value exceeded the mean control value ± 2*SD (rough binning) (JEG-3 cells [2]; JEG-3 cells, 24 h) [µM]	cell viability relative to vehicle control (rough binning) (JEG-3 cells [2])	EC50 (JEG-3 cells [3]; [5]) [µM]	EC50 (JEG-3 cells [2]; [6]) [µM]	other results
Cc1ccc(S(=O)(=O)OCC(F)(F)C(F)(F)C(F)(F)C(F)(F)F)cc1 [1H,1H-Nonafluoropentyl p-toluenesulfonate]	400	306 ± 47.9	reduced cellular proliferation	50	increased cell viability	159 ± 17.7		
O=C(O)C(F)(F)C(F)(F)C(F)(F)C(F)(F)C(F)(F)C(F)(F)C(F)(F)C(F)(F)C(F)(F)C(F)(F)F [Perfluoroundecanoic acid]	100	230 ± 13.3	reduced cellular proliferation		reduced cell viability	200 ± 4	266 ± 12.4	Viability ↓, lowest concentration at which the mean response value exceeded the mean control value ± 2*SD (rough binning) (JEG-3 cells [2]; JEG-3 cells, 24 h, decrease): 300 µM; MMP ↓, lowest concentration at which the mean response value exceeded the mean control value ± 2*SD (rough binning) (JEG-3 cells [3]; JEG-3 cells, 24 h, decrease): 100 µM; MMP relative to vehicle control (rough binning) (JEG-3 cells [3]; after 24 h, in at least one concentration): reduced MMP
6:2 Fluorotelomer alcohol						332 ± 44.1	415 ± 70.6	EC50 (JEG-3 cells [3]; JEG-3 cells, 24 h, read-out: MMP EC50 ± SE): 95.1 ± 15.3 µM
O=C(O)C(F)(F)C(F)(F)C(F)(F)C(F)(F)C(F)(F)C(F)F [7H-Perfluoroheptanoic acid]	400	294 ± 48.2	reduced cellular proliferation	50	increased cell viability		223 ± 60.2	
O=C(O)C(F)(OC(F)(F)C(F)(F)C(F)(F)F)C(F)(F)F (stereo not drawn) [Ammonium perfluoro-2-methyl-3-oxahexanoate]								minimal effective concentration (JEG-3 cells [1]; Homo sapiens, JEG-3, 24 h): 50 µM; EC50 (JEG-3 cells [1]; Homo sapiens, JEG-3, read-out: Proliferation EC50 ± SD (raw values), JEG-3 cells, raw model output including fits that did not meet inclusion criteria): 997 ± 952 µM
O=C(O)C(F)(F)C(F)(F)C(F)(F)C(F)(F)F [Perfluoropentanoic acid]				200	increased cell viability	175 ± 68.4		
O=C(O)C(F)(F)C(F)(F)C(F)(F)C(F)(F)C(F)(F)C(F)(F)F [Perfluoroheptanoic acid]			reduced cellular proliferation					minimal effective concentration (JEG-3 cells [1]; Homo sapiens, JEG-3, 24 h): 450 µM; EC50 (JEG-3 cells [1]; Homo sapiens, JEG-3, 24 h, read-out: Proliferation EC50 ± SD, JEG-3 cells, 24 h exposure, four-parameter fit, estimates meeting inclusion criteria): 277 ± 81.6 µM; EC50 (JEG-3 cells [2]; Homo sapiens, JEG-3, 24 h, read-out: Viability EC50 ± SD, JEG-3 cells, 24 h exposure): 487 ± 409 µM
